Data from US11377441B2, “Covalent inhibitors of KRAS” (Araxes Pharma LLC, priority 2017, dated 2022).

What follows are compounds tested against T1, KRAS G12C 1-169, his-tagged protein, GDP-loaded (Homo sapiens, UniProt P01116, G12C) (assay: Biochemical assay: covalent modification of KRAS G12C measured by mass spectrometry (RapidFire/TOF or Q-Exactive)). Conditions: covalent binding to (modification of) KRAS G12C after a ten minute incubation period.
T1 construct: KRAS G12C 1-169, his-tagged protein, GDP-loaded
Format: binding
Procedure, shortened: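 Intact-mass readout (TOF or Q-Exactive, charge-envelope deconvolution) gives percent covalent adduct from modified and unmodified species. Compound at 10, 30 or 100 μM was incubated at room temperature for 10 min to 24 h with 2 μM or 0.5 μM GDP-bound KRAS G12C 1-169 in Hepes/NaCl/MgCl2 buffer, then acid-quenched.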

**Q.** `C=CC(=O)N1C[C@H](C)N(c2nc(OC[C@@H]3CCCN3C)nc3c(F)c(-c4c(C)ccc5[nH]nc(C6CC6)c45)c(Cl)cc23)C[C@H]1C` (atropisomer, axis not shown) [Compound 227, 1-((2R,5S)-4-((S)-6-chloro-7-(3-cyclopropyl-5-methyl-1H-indazol-4-yl)-8-fluoro-2-(((S)-1-methylpyrrolidin-2-yl)methoxy)quinazolin-4-yl)-2,5-dimethylpiperazin-1-yl)prop-2-en-1-one] was tested. Which Binding % did it give?
**A.** The Binding % was “+ (+ indicates binding activity greater than 0% and up to 50%)”.

**Q.** With `C=CC(=O)N1C[C@H](C)N(c2nc(OC[C@@H]3CCCN3C)nc3c(F)c(-c4c(C)ccc5[nH]nc(C6CC6)c45)c(Cl)cc23)C[C@H]1C` (atropisomer, axis not shown) [Compound 228, 1-((2R,5S)-4-((R)-6-chloro-7-(3-cyclopropyl-5-methyl-1H-indazol-4-yl)-8-fluoro-2-(((S)-1-methylpyrrolidin-2-yl)methoxy)quinazolin-4-yl)-2,5-dimethylpiperazin-1-yl)prop-2-en-1-one] as the compound, how does the Binding % read?
**A.** The Binding % was “+++ (+++ indicates binding activity greater than 80%)”.

**Q.** For `C=CC(=O)N1C[C@H](C)N(c2nc(OC[C@@H]3CCCN3C)nc3c(F)c(-c4c(C)ccc5cnn(C)c45)c(Cl)cc23)C[C@H]1C` (atropisomer, axis not shown) [Compound 234, 1-((2R,5S)-4-((S)-6-chloro-7-(1,6-dimethyl-1H-indazol-7-yl)-8-fluoro-2-(((S)-1-methylpyrrolidin-2-yl)methoxy)quinazolin-4-yl)-2,5-dimethylpiperazin-1-yl)prop-2-en-1-one], which Binding % is on record?
**A.** Its Binding % is “++ (++ indicates binding activity from 50 to 80%)”.

**Q.** `C=CC(=O)N1C[C@H](C)N(c2nc(OC[C@@H]3CCCN3C)nc3c(F)c(-c4c(C)ccc5cnn(C)c45)c(Cl)cc23)C[C@H]1C` (atropisomer, axis not shown) [Compound 235, 1-((2R,5S)-4-((R)-6-chloro-7-(1,6-dimethyl-1H-indazol-7-yl)-8-fluoro-2-(((S)-1-methylpyrrolidin-2-yl)methoxy)quinazolin-4-yl)-2,5-dimethylpiperazin-1-yl)prop-2-en-1-one] was tested. Which Binding % did it give?
**A.** Its Binding % is “+++ (+++ indicates binding activity greater than 80%)”.

**Q.** With `C=CC(=O)N1C[C@H](C)N(c2nc(OC[C@H]3CCCN3C)nc3c(F)c(-c4c(C)ccc5cnn(C)c45)c(Cl)cc23)C[C@H]1C` (atropisomer, axis not shown) [Compound 236, 1-((2R,5S)-4-((R)-6-chloro-7-(1,6-dimethyl-1H-indazol-7-yl)-8-fluoro-2-(((R)-1-methylpyrrolidin-2-yl)methoxy)quinazolin-4-yl)-2,5-dimethylpiperazin-1-yl)prop-2-en-1-one] as the compound, how does the Binding % read?
**A.** Its Binding % is “+ (+ indicates binding activity greater than 0% and up to 50%)”.

**Q.** How did the Binding % turn out when `C=CC(=O)N1C[C@@H](C)N(c2nc(N3CC(N(C)C)C3)nc3c(F)c(-c4c(C)ccc5cnn(C)c45)c(Cl)cc23)C[C@H]1C` (atropisomer, axis not shown) [Compound 242, 1-((2R,5R)-4-((S)-6-chloro-7-(1,6-dimethyl-1H-indazol-7-yl)-2-(3-(dimethylamino)azetidin-1-yl)-8-fluoroquinazolin-4-yl)-2,5-dimethylpiperazin-1-yl)prop-2-en-1-one] was run?
**A.** Its Binding % is “+ (+ indicates binding activity greater than 0% and up to 50%)”.

**Q.** `C=CC(=O)N1C[C@@H](C)N(c2nc(N3CC(N(C)C)C3)nc3c(F)c(-c4c(C)ccc5cnn(C)c45)c(Cl)cc23)C[C@H]1C` (atropisomer, axis not shown) [Compound 243, 1-((2R,5R)-4-((R)-6-chloro-7-(1,6-dimethyl-1H-indazol-7-yl)-2-(3-(dimethylamino)azetidin-1-yl)-8-fluoroquinazolin-4-yl)-2,5-dimethylpiperazin-1-yl)prop-2-en-1-one] was tested. Which Binding % did it give?
**A.** Its Binding % is “+++ (+++ indicates binding activity greater than 80%)”.

**Q.** `C=CC(=O)N1C[C@@H](C)N(c2nc(N3CC(N(C)C)C3)nc3c(F)c(-c4c(C)ccc5cnn(C)c45)c(Cl)cc23)C[C@@H]1C` (atropisomer, axis not shown) [Compound 245, 1-((2S,5R)-4-((S)-6-chloro-7-(1,6-dimethyl-1H-indazol-7-yl)-2-(3-(dimethylamino)azetidin-1-yl)-8-fluoroquinazolin-4-yl)-2,5-dimethylpiperazin-1-yl)prop-2-en-1-one] was tested. Which Binding % did it give?
**A.** Its Binding % is “+ (+ indicates binding activity greater than 0% and up to 50%)”.

**Q.** With `C=CC(=O)N1C[C@@H](C)N(c2nc(N3CC(N(C)C)C3)nc3c(F)c(-c4c(C)ccc5cnn(C)c45)c(Cl)cc23)C[C@@H]1C` (atropisomer, axis not shown) [Compound 246, 1-((2S,5R)-4-((R)-6-chloro-7-(1,6-dimethyl-1H-indazol-7-yl)-2-(3-(dimethylamino)azetidin-1-yl)-8-fluoroquinazolin-4-yl)-2,5-dimethylpiperazin-1-yl)prop-2-en-1-one] as the compound, how does the Binding % read?
**A.** Its Binding % is “+ (+ indicates binding activity greater than 0% and up to 50%)”.

**Q.** With `C=CC(=O)N1C[C@H](C)N(c2nc(N3CC(N(C)C)C3)nc3c(F)c(-c4c(C)ccc5cnn(C)c45)c(Cl)cc23)C[C@@H]1C` (atropisomer, axis not shown) [Compound 248, 1-((2S,5S)-4-((S)-6-chloro-7-(1,6-dimethyl-1H-indazol-7-yl)-2-(3-(dimethylamino)azetidin-1-yl)-8-fluoroquinazolin-4-yl)-2,5-dimethylpiperazin-1-yl)prop-2-en-1-one] as the compound, how does the Binding % read?
**A.** Its Binding % is “+ (+ indicates binding activity greater than 0% and up to 50%)”.

**Q.** Which Binding % does the source give for `C=CC(=O)N1C[C@H](C)N(c2nc(N3CC(N(C)C)C3)nc3c(F)c(-c4c(C)ccc5cnn(C)c45)c(Cl)cc23)C[C@@H]1C` (atropisomer, axis not shown) [Compound 249, 1-((2S,5S)-4-((R)-6-chloro-7-(1,6-dimethyl-1H-indazol-7-yl)-2-(3-(dimethylamino)azetidin-1-yl)-8-fluoroquinazolin-4-yl)-2,5-dimethylpiperazin-1-yl)prop-2-en-1-one] here?
**A.** Its Binding % is “+ (+ indicates binding activity greater than 0% and up to 50%)”.

**Q.** How did the Binding % turn out when `C=CC(=O)N1C[C@@H](C)N(c2nc(N3CC(N(C)C)C3)nc3c(F)c(-c4c(C)ccc5[nH]nc(C6CC6)c45)c(Cl)cc23)C[C@H]1C` (atropisomer, axis not shown) [Compound 250, 1-((2R,5R)-4-((S)-6-chloro-7-(3-cyclopropyl-5-methyl-1H-indazol-4-yl)-2-(3-(dimethylamino)azetidin-1-yl)-8-fluoroquinazolin-4-yl)-2,5-dimethylpiperazin-1-yl)prop-2-en-1-one] was run?
**A.** Its Binding % is “+ (+ indicates binding activity greater than 0% and up to 50%)”.

**Q.** Which Binding % does the source give for `C=CC(=O)N1C[C@@H](C)N(c2nc(N3CC(N(C)C)C3)nc3c(F)c(-c4c(C)ccc5[nH]nc(C6CC6)c45)c(Cl)cc23)C[C@H]1C` (atropisomer, axis not shown) [Compound 251, 1-((2R,5R)-4-((R)-6-chloro-7-(3-cyclopropyl-5-methyl-1H-indazol-4-yl)-2-(3-(dimethylamino)azetidin-1-yl)-8-fluoroquinazolin-4-yl)-2,5-dimethylpiperazin-1-yl)prop-2-en-1-one] here?
**A.** Its Binding % is “+++ (+++ indicates binding activity greater than 80%)”.

**Q.** How did the Binding % turn out when `C=CC(=O)N1C[C@@H](C)N(c2nc(N3CC(N(C)C)C3)nc3c(F)c(-c4c(C)ccc5[nH]nc(C6CC6)c45)c(Cl)cc23)C[C@@H]1C` (atropisomer, axis not shown) [Compound 252, 1-((2S,5R)-4-((S)-6-chloro-7-(3-cyclopropyl-5-methyl-1H-indazol-4-yl)-2-(3-(dimethylamino)azetidin-1-yl)-8-fluoroquinazolin-4-yl)-2,5-dimethylpiperazin-1-yl)prop-2-en-1-one] was run?
**A.** Its Binding % is “+ (+ indicates binding activity greater than 0% and up to 50%)”.

**Q.** With `C=CC(=O)N1C[C@@H](C)N(c2nc(N3CC(N(C)C)C3)nc3c(F)c(-c4c(C)ccc5[nH]nc(C6CC6)c45)c(Cl)cc23)C[C@@H]1C` (atropisomer, axis not shown) [Compound 253, 1-((2S,5R)-4-((R)-6-chloro-7-(3-cyclopropyl-5-methyl-1H-indazol-4-yl)-2-(3-(dimethylamino)azetidin-1-yl)-8-fluoroquinazolin-4-yl)-2,5-dimethylpiperazin-1-yl)prop-2-en-1-one] as the compound, how does the Binding % read?
**A.** Its Binding % is “+ (+ indicates binding activity greater than 0% and up to 50%)”.

**Q.** With `C=CC(=O)N1C[C@H](C)N(c2nc(N3CC(N(C)C)C3)nc3c(F)c(-c4c(C)ccc5[nH]nc(C6CC6)c45)c(Cl)cc23)C[C@@H]1C` (atropisomer, axis not shown) [Compound 254, 1-((2S,5S)-4-((S)-6-chloro-7-(3-cyclopropyl-5-methyl-1H-indazol-4-yl)-2-(3-(dimethylamino)azetidin-1-yl)-8-fluoroquinazolin-4-yl)-2,5-dimethylpiperazin-1-yl)prop-2-en-1-one] as the compound, how does the Binding % read?
**A.** The Binding % was “+ (+ indicates binding activity greater than 0% and up to 50%)”.

**Q.** For `C=CC(=O)N1C[C@H](C)N(c2nc(N3CC(N(C)C)C3)nc3c(F)c(-c4c(C)ccc5[nH]nc(C6CC6)c45)c(Cl)cc23)C[C@@H]1C` (atropisomer, axis not shown) [Compound 255, 1-((2S,5S)-4-((R)-6-chloro-7-(3-cyclopropyl-5-methyl-1H-indazol-4-yl)-2-(3-(dimethylamino)azetidin-1-yl)-8-fluoroquinazolin-4-yl)-2,5-dimethylpiperazin-1-yl)prop-2-en-1-one], which Binding % is on record?
**A.** The Binding % was “+ (+ indicates binding activity greater than 0% and up to 50%)”.

**Q.** `C=CC(=O)N1C[C@H](C)N(c2nc(OC[C@H]3CCCN3C)nc3c(F)c(-c4c(C)ccc5cnn(C)c45)c(Cl)cc23)C[C@H]1C` (atropisomer, axis not shown) [Compound 261, 1-((2R,5S)-4-((S)-6-chloro-7-(1,6-dimethyl-1H-indazol-7-yl)-8-fluoro-2-(((R)-1-methylpyrrolidin-2-yl)methoxy)quinazolin-4-yl)-2,5-dimethylpiperazin-1-yl)prop-2-en-1-one] was tested. Which Binding % did it give?
**A.** The Binding % was “+++ (+++ indicates binding activity greater than 80%)”.
